Test results published in ChEMBL document CHEMBL5303763, “Data for DCP probe BI-3802” (2023).
One block for each molecule: values may come before it.

Legend:
[1] = biological target: Glycogen synthase kinase-3 beta (Homo sapiens) (UniProt P49841); assay: GSK3B Invitrogen Lab (UK) kinase screen (BI); settings: Compound concentration 1.0 uM
[2] = biological target: Inhibitor of nuclear factor kappa-B kinase subunit beta (Homo sapiens) (UniProt O14920); assay: IKBKB Invitrogen Lab (UK) kinase screen (BI); settings: Compound concentration 1.0 uM
[3] = biological target: Interleukin-1 receptor-associated kinase 4 (Homo sapiens) (UniProt Q9NWZ3); assay: IRAK4 Invitrogen Lab (UK) kinase screen (BI); settings: Compound concentration 1.0 uM
Chain of Interleukin-1 receptor-associated kinase 4 (Homo sapiens) (Q9NWZ3 whole entry): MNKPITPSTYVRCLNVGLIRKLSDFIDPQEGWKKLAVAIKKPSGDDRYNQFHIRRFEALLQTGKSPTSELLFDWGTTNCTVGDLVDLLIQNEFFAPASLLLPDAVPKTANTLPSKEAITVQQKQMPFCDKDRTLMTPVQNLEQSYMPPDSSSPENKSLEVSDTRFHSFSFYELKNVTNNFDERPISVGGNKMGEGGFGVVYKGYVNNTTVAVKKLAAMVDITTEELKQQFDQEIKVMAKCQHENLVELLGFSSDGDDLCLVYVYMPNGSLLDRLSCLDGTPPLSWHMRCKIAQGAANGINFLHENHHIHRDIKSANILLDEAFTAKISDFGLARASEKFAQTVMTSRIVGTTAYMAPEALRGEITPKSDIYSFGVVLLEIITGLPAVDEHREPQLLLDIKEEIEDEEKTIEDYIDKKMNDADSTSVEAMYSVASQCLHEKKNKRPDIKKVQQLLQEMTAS

[4] = biological target: MAP kinase-activated protein kinase 3 (Homo sapiens) (UniProt Q16644); assay: MAPKAPK3 Invitrogen Lab (UK) kinase screen (BI); settings: Compound concentration 1.0 uM
[5] = biological target: Myosin light chain kinase 2, skeletal/cardiac muscle (Homo sapiens) (UniProt Q9H1R3); assay: MYLK2 Invitrogen Lab (UK) kinase screen (BI); settings: Compound concentration 1.0 uM
[6] = biological target: High affinity nerve growth factor receptor (Homo sapiens) (UniProt P04629); assay: NTRK1 Invitrogen Lab (UK) kinase screen (BI); settings: Compound concentration 1.0 uM
[7] = biological target: Serine/threonine-protein kinase PLK1 (Homo sapiens) (UniProt P53350); assay: PLK1 Invitrogen Lab (UK) kinase screen (BI); settings: Compound concentration 1.0 uM
[8] = biological target: cAMP-dependent protein kinase catalytic subunit alpha (Homo sapiens) (UniProt P17612); assay: PRKACA Invitrogen Lab (UK) kinase screen (BI); settings: Compound concentration 1.0 uM
[9] = biological target: Rho-associated protein kinase 2 (Homo sapiens) (UniProt O75116); assay: ROCK2 Invitrogen Lab (UK) kinase screen (BI); settings: Compound concentration 1.0 uM
[10] = biological target: Ribosomal protein S6 kinase alpha-3 (Homo sapiens) (UniProt P51812); assay: RPS6KA3 Invitrogen Lab (UK) kinase screen (BI); settings: Compound concentration 1.0 uM
Chain of Ribosomal protein S6 kinase alpha-3 (Homo sapiens) (P51812 whole entry): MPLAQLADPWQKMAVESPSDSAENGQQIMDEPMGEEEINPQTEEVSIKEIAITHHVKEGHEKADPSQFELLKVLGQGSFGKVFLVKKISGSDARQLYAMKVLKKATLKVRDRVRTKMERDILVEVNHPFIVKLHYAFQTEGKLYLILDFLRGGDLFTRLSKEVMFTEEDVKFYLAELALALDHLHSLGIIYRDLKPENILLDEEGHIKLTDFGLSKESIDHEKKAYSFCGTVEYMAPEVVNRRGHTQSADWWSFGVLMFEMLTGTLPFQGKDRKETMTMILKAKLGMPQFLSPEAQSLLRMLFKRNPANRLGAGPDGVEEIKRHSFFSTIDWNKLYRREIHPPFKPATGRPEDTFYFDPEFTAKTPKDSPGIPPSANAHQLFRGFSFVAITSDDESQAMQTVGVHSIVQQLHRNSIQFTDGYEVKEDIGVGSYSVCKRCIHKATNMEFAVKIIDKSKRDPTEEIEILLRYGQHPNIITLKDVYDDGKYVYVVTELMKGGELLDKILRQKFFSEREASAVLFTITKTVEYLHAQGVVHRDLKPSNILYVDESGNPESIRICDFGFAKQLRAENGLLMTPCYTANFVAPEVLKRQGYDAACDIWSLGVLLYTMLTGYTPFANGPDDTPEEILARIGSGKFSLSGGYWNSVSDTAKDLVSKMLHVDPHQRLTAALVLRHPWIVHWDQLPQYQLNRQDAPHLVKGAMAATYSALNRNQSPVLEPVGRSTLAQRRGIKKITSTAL

[11] = biological target: Ribosomal protein S6 kinase alpha-5 (Homo sapiens) (UniProt O75582); assay: RPS6KA5 Invitrogen Lab (UK) kinase screen (BI); settings: Compound concentration 1.0 uM
[12] = biological target: SRSF protein kinase 2 (Homo sapiens) (UniProt P78362); assay: SRPK2 Invitrogen Lab (UK) kinase screen (BI); settings: Compound concentration 1.0 uM
[13] = biological target: Serine/threonine-protein kinase TBK1 (Homo sapiens) (UniProt Q9UHD2); assay: TBK1 Invitrogen Lab (UK) kinase screen (BI); settings: Compound concentration 1.0 uM
[14] = biological target: 5-hydroxytryptamine receptor 7 (Homo sapiens) (UniProt P34969); settings: Compound concentration 10.0 uM
Chain of 5-hydroxytryptamine receptor 7 (Homo sapiens) (P34969 whole entry): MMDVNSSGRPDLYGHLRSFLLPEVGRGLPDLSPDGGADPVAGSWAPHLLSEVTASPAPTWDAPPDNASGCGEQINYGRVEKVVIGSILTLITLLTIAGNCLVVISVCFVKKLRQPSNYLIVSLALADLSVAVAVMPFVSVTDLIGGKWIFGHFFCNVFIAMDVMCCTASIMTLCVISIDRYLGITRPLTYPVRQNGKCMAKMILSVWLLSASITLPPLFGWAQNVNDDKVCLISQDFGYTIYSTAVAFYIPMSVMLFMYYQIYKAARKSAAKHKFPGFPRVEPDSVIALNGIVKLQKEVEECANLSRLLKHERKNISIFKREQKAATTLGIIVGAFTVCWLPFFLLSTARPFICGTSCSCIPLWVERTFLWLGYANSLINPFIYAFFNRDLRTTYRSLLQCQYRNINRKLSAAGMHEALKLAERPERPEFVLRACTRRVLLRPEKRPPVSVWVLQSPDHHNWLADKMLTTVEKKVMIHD

[15] = biological target: Sodium-dependent dopamine transporter (Homo sapiens) (UniProt Q01959); settings: Compound concentration 10.0 uM
Chain of Sodium-dependent dopamine transporter (Homo sapiens) (Q01959 whole entry): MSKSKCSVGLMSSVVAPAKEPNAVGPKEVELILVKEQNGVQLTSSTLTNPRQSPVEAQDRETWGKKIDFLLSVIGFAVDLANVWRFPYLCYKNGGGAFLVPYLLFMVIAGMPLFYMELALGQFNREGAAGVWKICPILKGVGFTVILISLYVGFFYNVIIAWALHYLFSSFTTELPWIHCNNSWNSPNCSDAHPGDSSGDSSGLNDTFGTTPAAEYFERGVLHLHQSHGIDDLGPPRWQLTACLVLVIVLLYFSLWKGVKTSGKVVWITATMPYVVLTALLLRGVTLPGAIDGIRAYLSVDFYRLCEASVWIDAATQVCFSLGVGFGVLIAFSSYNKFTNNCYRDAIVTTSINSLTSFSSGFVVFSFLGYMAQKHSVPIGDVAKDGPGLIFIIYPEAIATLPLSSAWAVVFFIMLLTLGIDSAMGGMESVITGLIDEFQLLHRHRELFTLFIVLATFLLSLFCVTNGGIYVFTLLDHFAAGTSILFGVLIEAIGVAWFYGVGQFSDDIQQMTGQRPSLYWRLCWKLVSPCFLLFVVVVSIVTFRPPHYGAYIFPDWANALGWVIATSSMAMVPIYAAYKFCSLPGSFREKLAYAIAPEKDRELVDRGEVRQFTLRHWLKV

[16] = biological target: Histamine H2 receptor (Homo sapiens) (UniProt P25021); settings: Compound concentration 10.0 uM
Chain of Histamine H2 receptor (Homo sapiens) (P25021 whole entry): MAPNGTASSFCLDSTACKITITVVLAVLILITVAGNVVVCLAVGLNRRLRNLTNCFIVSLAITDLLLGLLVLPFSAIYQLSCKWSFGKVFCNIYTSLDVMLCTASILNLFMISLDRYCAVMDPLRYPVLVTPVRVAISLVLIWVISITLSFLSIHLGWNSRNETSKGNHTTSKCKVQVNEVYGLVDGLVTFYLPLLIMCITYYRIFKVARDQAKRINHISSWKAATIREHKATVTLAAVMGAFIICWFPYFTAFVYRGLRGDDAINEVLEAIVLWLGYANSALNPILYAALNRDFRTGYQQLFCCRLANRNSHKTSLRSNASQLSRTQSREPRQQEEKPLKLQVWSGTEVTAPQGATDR

[17] = biological target: Histamine H4 receptor (Homo sapiens) (UniProt Q9H3N8); settings: Compound concentration 10.0 uM
[18] = biological target: Alpha-2C adrenergic receptor (Homo sapiens) (UniProt P18825); settings: Compound concentration 10.0 uM
Chain of Alpha-2C adrenergic receptor (Homo sapiens) (P18825 whole entry): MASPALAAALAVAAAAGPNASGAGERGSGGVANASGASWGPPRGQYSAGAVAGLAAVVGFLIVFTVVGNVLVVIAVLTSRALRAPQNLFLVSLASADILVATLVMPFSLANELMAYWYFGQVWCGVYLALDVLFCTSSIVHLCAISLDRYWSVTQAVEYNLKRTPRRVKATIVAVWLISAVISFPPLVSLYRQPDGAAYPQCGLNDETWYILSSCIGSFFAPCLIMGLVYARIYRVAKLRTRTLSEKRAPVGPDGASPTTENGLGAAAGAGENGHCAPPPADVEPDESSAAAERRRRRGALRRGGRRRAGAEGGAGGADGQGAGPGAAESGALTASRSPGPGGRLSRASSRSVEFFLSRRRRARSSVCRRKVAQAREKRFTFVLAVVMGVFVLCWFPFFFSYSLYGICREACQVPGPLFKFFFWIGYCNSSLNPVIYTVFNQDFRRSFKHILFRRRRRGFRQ

[19] = biological target: Beta-3 adrenergic receptor (Homo sapiens) (UniProt P13945); settings: Compound concentration 10.0 uM
Chain of Beta-3 adrenergic receptor (Homo sapiens) (P13945 whole entry, looked up): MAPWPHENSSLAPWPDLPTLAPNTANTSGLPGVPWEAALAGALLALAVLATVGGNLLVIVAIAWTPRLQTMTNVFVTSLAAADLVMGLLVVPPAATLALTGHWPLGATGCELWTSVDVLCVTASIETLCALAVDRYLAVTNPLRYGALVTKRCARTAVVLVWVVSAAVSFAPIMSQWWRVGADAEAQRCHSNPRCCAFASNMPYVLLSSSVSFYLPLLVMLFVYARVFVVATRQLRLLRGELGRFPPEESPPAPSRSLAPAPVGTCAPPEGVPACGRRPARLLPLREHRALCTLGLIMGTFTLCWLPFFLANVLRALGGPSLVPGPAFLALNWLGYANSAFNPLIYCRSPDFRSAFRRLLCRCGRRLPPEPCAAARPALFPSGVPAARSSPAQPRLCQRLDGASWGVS

[20] = biological target: Alpha-1D adrenergic receptor (Homo sapiens) (UniProt P25100); settings: Compound concentration 10.0 uM
Chain of Alpha-1D adrenergic receptor (Homo sapiens) (P25100 whole entry): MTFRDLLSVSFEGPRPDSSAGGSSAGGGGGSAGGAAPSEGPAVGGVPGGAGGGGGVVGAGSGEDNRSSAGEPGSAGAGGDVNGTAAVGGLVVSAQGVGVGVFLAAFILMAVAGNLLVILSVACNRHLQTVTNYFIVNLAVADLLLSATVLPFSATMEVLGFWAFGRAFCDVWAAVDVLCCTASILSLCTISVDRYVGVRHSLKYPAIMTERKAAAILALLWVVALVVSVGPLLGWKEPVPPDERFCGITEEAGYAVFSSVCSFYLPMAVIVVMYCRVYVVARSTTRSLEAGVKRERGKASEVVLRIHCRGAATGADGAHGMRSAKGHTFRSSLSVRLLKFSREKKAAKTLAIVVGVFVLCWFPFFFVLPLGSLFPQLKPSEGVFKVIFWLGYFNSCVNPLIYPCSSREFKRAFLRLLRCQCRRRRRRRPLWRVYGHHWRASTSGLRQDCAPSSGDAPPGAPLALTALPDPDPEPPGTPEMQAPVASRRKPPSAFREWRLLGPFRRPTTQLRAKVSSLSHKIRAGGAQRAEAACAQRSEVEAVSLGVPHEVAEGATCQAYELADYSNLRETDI

[21] = biological target: Mitogen-activated protein kinase 3 (Homo sapiens) (UniProt P27361); assay: MAPK3 Invitrogen Lab (UK) kinase screen (BI); settings: Compound concentration 1.0 uM
[22] = biological target: Cannabinoid receptor 1 (Homo sapiens) (UniProt P21554); assay: CB1(HU)_AGON Eurofins SafetyScreen44 (BI); settings: filed as agonist; Compound concentration 10.0 uM
Chain of Cannabinoid receptor 1 (Homo sapiens) (P21554 whole entry): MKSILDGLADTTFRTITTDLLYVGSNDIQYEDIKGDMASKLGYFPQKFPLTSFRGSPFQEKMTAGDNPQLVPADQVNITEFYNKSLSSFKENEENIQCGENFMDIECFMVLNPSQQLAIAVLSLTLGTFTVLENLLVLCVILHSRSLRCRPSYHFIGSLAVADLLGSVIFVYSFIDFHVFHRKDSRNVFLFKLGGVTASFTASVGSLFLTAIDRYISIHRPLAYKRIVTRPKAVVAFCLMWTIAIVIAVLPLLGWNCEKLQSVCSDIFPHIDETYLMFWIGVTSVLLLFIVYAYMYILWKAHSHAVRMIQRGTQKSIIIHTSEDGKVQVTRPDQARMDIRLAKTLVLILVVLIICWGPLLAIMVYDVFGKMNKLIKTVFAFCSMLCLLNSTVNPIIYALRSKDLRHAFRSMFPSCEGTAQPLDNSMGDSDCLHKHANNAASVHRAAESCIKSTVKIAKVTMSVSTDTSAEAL

[23] = biological target: Kappa-type opioid receptor (Homo sapiens) (UniProt P41145); assay: KAPPA(KOP)_HU Eurofins SafetyScreen44 (BI); settings: Compound concentration 10.0 uM

Chain of Glycogen synthase kinase-3 beta (Homo sapiens) (P49841 whole entry, looked up): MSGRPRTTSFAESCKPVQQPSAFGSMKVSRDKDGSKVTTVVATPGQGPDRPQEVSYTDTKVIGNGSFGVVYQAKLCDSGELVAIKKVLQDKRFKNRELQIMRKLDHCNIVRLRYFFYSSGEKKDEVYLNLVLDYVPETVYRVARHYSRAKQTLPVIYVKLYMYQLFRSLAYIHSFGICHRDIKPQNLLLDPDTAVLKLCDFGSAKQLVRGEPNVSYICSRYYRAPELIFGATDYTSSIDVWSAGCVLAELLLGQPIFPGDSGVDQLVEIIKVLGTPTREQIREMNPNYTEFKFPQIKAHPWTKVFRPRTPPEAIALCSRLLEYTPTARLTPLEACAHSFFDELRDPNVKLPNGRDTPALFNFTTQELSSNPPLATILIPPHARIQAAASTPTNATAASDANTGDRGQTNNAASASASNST

residual activity [1]: 93%
residual activity [2]: 102%
residual activity [3]: 90%
residual activity [4]: 97%
residual activity [5]: 90%
residual activity [6]: 83%
residual activity [7]: 92%
residual activity [8]: 91%
residual activity [9]: 100%
residual activity [10]: 89%
residual activity [11]: 96%
residual activity [12]: 106%
residual activity [13]: 120%
inhibition [14]: 15.5%
inhibition [15]: 12.6%
inhibition [16]: 13.9%
inhibition [17]: -0.56%
inhibition [18]: 6.5%
inhibition [19]: -4.02%
inhibition [20]: -7.81%
residual activity [21]: 105%
SMILES: CNC(=O)COc1cc2cc(Nc3nc(N4C[C@H](C)C[C@H](C)C4)ncc3Cl)ccc2n(C)c1=O

SMILES: C[C@@H]1C[C@H](C)CN(c2ncc(Cl)c(Nc3ccc4c(c3)cc(OC(C)(C)C(=O)O)c(=O)n4C)n2)C1
residual activity [22]: 95%
residual activity [23]: 86%
